Each structure is given as a SMILES string. Structures can show the parent of a compound that is named as a salt. Bounds are passed on as bounds.

One assay concerns the target T1, HiBit-BRM fusion protein (Homo sapiens, UniProt P51531).
T1 construct: expressed in transfected cells
In words: HiBiT-BRM cell-based degradation assay (Nano-Glo HiBiT Lytic Detection, 24 h). The following applies: HeLa cell line expressing HiBiT-BRM; for DC50: read-out: BRM HiBit Degradation IC50. Here is the method: (§1) Procedure: A stable HeLa cell line expressing HiBiT-BRM was generated. On day 0, 5000 cells were seeded in 40 μL of media into each well of 384-well cell culture plates. On day 1, cells were treated with 120 nL DMSO or 120 nL of 3-fold serially DMSO-diluted compounds (10 points in duplicate with 30 μM as final top dose). Subsequently plates were incubated for 24 h in a standard tissue culture incubator and equilibrated at room temperature for 15 minutes. Nano-Glo HiBiT Lytic Detection System (Promega N3050) reagent was freshly prepared and 20 ul was added to each well. Upon addition of this LgBit-containing reagent, the HiBiT and LgBiT proteins associate to form the luminescent NanoBiT luciferase. The plates were shaken for 10 minutes at room temperature and the bioluminescence read using an EnVision plate reader (PerkinElmer).
(§2) The degradation % was calculated using the following formula: % degradation=100%−100%×(LumSample−LumLC)/(LumHC−LumLC). DMSO treated cells are employed as High Control (HC) and 2 μM of a known BRM/BRG1 degrader standard treated cells are employed as Low Control (LC).
(The HiBiT peptide binds its large partner to form an active luciferase.)

Assay [1] deals with T2, HiBit-BRG1 fusion protein (Homo sapiens, UniProt P51532).
T2 construct: expressed in transfected cells
T2 sequence (P51532 whole entry, the tested form may be a part): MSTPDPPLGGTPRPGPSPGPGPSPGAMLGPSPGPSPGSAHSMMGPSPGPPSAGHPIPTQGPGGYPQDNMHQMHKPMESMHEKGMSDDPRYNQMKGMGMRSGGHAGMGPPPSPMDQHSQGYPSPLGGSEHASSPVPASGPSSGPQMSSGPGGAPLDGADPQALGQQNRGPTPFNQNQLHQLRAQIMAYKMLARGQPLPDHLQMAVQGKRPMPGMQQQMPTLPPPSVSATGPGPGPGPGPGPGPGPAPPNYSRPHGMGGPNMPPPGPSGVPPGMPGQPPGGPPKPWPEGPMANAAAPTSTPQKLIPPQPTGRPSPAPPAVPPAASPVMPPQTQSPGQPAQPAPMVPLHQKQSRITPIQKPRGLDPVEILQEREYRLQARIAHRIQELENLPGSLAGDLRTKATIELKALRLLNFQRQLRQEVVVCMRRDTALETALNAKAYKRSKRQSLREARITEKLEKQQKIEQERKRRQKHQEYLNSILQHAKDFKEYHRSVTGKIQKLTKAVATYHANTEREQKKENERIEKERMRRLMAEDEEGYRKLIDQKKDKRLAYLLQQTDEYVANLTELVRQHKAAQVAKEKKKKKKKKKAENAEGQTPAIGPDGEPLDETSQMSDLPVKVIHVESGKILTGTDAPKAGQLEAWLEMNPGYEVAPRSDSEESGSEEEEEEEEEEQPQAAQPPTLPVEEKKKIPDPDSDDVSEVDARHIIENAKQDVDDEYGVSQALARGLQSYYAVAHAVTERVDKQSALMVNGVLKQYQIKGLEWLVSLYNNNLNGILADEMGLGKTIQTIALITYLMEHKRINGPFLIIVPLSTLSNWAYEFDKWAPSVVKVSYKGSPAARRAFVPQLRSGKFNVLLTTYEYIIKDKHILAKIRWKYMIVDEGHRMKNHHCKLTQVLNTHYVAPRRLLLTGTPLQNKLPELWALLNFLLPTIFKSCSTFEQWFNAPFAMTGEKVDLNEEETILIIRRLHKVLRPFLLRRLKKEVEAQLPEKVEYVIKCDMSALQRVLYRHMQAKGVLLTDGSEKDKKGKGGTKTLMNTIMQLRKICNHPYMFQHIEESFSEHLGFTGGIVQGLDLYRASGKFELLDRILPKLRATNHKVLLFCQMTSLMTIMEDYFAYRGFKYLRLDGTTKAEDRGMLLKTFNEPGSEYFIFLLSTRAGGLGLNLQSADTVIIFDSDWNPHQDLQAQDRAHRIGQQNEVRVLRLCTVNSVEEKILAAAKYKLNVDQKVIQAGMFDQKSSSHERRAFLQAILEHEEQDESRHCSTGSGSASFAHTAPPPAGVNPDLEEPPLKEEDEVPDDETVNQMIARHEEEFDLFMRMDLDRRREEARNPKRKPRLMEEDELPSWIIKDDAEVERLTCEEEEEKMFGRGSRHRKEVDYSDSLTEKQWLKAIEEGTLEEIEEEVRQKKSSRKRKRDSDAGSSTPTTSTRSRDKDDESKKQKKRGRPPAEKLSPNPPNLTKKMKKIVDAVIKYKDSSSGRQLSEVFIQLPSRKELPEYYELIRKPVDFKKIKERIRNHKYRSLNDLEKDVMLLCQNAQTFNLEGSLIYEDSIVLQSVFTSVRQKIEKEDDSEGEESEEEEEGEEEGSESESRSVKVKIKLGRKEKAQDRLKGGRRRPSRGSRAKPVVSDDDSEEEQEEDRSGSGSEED
In words: HiBiT-BRG1 cell-based degradation assay (Nano-Glo HiBiT Lytic Detection, 24 h). Conditions: HeLa cell line expressing HiBit-BRG1 and LgBit; for Dmax: read-out: BRG1 HiBit Degradation Maximum (%); for DC50: read-out: BRMG1 HiBit Degradation IC50. Here is the method:
as §1, with “On day 1, cells were treated with 120 nL DMSO or 120 nL of 3-fold serially DMSO-diluted compounds (10 points in duplicate with 30 μM as final top dose).” left out
For measurement of BRG1 degradation, a stable HeLa cell line expressing HiBit-BRG1 and LgBit was generated. The same protocol as above was then followed.
as §2

T1 sequence (P51531 whole entry, the tested form may be a part): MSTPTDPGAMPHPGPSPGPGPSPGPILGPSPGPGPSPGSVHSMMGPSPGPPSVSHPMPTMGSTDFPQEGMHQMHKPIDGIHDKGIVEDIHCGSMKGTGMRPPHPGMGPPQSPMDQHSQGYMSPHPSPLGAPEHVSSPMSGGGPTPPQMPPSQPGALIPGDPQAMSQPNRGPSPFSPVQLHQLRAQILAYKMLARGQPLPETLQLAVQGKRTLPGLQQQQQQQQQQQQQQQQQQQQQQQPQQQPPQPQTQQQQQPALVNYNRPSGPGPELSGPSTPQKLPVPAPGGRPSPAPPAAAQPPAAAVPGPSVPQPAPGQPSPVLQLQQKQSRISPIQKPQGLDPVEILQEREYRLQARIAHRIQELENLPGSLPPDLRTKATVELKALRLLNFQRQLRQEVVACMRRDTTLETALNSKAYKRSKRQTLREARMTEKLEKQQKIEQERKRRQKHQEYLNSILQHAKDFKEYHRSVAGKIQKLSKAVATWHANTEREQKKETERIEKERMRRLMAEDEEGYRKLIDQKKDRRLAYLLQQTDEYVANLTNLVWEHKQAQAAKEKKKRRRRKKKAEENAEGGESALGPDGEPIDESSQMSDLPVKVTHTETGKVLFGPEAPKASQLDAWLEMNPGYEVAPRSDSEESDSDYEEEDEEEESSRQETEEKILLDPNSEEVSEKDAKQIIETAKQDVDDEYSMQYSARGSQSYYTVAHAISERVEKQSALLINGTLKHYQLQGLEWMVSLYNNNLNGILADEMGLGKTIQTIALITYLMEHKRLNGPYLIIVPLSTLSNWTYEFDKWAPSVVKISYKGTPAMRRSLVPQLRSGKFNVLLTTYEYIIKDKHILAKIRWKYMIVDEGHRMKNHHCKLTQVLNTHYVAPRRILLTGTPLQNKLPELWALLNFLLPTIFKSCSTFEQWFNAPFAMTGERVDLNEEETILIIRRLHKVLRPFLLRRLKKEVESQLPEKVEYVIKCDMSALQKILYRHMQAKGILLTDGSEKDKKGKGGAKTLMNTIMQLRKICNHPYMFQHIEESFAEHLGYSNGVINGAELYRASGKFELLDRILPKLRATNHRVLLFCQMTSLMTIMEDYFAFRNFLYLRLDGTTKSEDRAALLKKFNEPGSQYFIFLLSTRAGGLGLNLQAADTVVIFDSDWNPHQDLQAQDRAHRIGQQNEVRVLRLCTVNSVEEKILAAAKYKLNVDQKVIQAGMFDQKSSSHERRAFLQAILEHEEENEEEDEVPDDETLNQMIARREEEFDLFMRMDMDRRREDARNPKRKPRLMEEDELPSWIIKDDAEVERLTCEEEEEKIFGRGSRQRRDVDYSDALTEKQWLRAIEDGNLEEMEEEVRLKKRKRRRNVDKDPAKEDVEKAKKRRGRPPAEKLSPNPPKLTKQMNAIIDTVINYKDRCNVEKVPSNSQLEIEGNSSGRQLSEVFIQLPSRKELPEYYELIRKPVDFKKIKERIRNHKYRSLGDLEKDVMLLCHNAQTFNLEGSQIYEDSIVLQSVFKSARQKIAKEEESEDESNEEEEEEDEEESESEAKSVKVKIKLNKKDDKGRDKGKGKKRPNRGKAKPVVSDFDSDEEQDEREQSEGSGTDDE

Consider `Cc1ncsc1-c1ccc(CNC(=O)[C@@H]2C[C@@H](O)CN2C(=O)[C@@H](NC(=O)C(=O)N2CC(c3cc4cc(-c5ccccc5O)nnc4[nH]3)C2)C(C)(C)C)cc1` (racemic) [Compound 306, (2S,4R)-4-hydroxy-1-((S)-2-(2-(3-(3-(2-hydroxyphenyl)-7H-pyrrolo[2,3-c]pyridazin-6-yl)azetidin-1-yl)-2-oxoacetamido)-3,3-dimethylbutanoyl)-N-(4-(4-methylthiazol-5-yl)benzyl)pyrrolidine-2-carboxamide], for which, on HiBit-BRM fusion protein, the “BRM HiBit Degradation Maximum (%)” value is recorded as “C (“C” indicates maximum degradation < 50%)”. Further, in assay [1], the Dmax is < 50%.
On to `Cc1ncsc1-c1ccc([C@H](C)NC(=O)[C@@H]2C[C@@H](O)CN2C(=O)[C@@H](c2cc(OCCNCCC(=O)N3CC(c4cc5cc(-c6ccccc6O)nnc5[nH]4)C3)no2)C(C)C)cc1` (racemic) [Compound 65, (2S,4R)-4-hydroxy-1-((R)-2-(3-(2-((3-(3-(3-(2-hydroxyphenyl)-7H-pyrrolo[2,3-c]pyridazin-6-yl)azetidin-1-yl)-3-oxopropyl)amino)ethoxy)isoxazol-5-yl)-3-methylbutanoyl)-N-((S)-1-(4-(4-methylthiazol-5-yl)phenyl)ethyl)pyrrolidine-2-carboxamide], for which, on HiBit-BRM fusion protein, the “BRM HiBit Degradation Maximum (%)” value is on record as “B (“B” indicates maximum degradation ≥ 50%)” and the DC50 is > 1000 nM. In addition, the Dmax in assay [1] is < 50%.
As for `CC(C)[C@@H](C(=O)N1C[C@H](O)C[C@H]1C(=O)N[C@@H](C)c1ccc(-c2ccccc2F)cc1)c1cc(OCCN2CC(c3cc4cc(-c5ccccc5O)nnc4[nH]3)C2)no1` (single isomer, unassigned) [Compound 119], on HiBit-BRM fusion protein, the “BRM HiBit Degradation Maximum (%)” value is listed as “A (“A” indicates maximum degradation ≥ 75%)” and the DC50 is > 10 nM. In addition, in assay [1], the Dmax was > 50% and the DC50 was > 1000 nM.
On to `Cc1ncsc1-c1ccc(CNC(=O)[C@@H]2C[C@@H](O)CN2C(=O)[C@@H](NC(=O)CCCCCCCNCCC(=O)N2CC(c3c[nH]c4nnc(-c5ccccc5O)cc34)C2)C(C)(C)C)cc1` (racemic) [Compound 56, (2S,4R)-4-hydroxy-1-((S)-2-(8-((3-(3-(3-(2-hydroxyphenyl)-7H-pyrrolo[2,3-c]pyridazin-5-yl)azetidin-1-yl)-3-oxopropyl)amino)octanamido)-3,3-dimethylbutanoyl)-N-(4-(4-methylthiazol-5-yl)benzyl)pyrrolidine-2-carboxamide], for which, at HiBit-BRM fusion protein, the “BRM HiBit Degradation Maximum (%)” value was “B (“B” indicates maximum degradation ≥ 50%)” and the DC50 is > 1000 nM. For the same compound, the Dmax in assay [1] was < 50%.
As to `Cc1ncsc1-c1ccc(CNC(=O)[C@@H]2C[C@@H](O)CN2C(=O)[C@@H](NC(=O)CCCCCCCCCCCCCCCCC(=O)N2CC(c3cc4cc(-c5ccccc5O)nnc4[nH]3)C2)C(C)(C)C)cc1` [Compound 19, (2S,4R)-4-hydroxy-1-((S)-2-(18-(3-(3-(2-hydroxyphenyl)-7H-pyrrolo[2,3-c]pyridazin-6-yl)azetidin-1-yl)-18-oxooctadecanamido)-3,3-dimethylbutanoyl)-N-(4-(4-methylthiazol-5-yl)benzyl)pyrrolidine-2-carboxamide], the “BRM HiBit Degradation Maximum (%)” value at HiBit-BRM fusion protein is given as “C (“C” indicates maximum degradation < 50%)”. Besides, the Dmax in assay [1] is < 50%.
For the compound `Cc1ncsc1-c1ccc([C@H](C)NC(=O)[C@@H]2C[C@@H](O)CN2C(=O)[C@@H](c2cc(OCCN3CCC(c4[nH]c5nnc(-c6ccccc6O)cc5c4C)CC3)no2)C(C)C)cc1` (racemic) [Compound 270, (2S,4R)-4-hydroxy-1-[(2R)-2-[3-(2-{4-[3-(2-hydroxyphenyl)-5-methyl-7H-pyrrolo[2,3-c]pyridazin-6-yl]piperidin-1-yl}ethoxy)-1,2-oxazol-5-yl]-3-methylbutanoyl]-N-[(1S)-1-[4-(4-methyl-1,3-thiazol-5-yl)phenyl]ethyl]pyrrolidine-2-carboxamide], at HiBit-BRM fusion protein, the “BRM HiBit Degradation Maximum (%)” value is recorded as “A (“A” indicates maximum degradation ≥ 75%)” and the DC50 is < 10 nM. In assay [1], the Dmax is > 75% and the DC50 is > 10 nM.
Turning to `Cc1ncsc1-c1ccc(CNC(=O)[C@@H]2C[C@@H](O)CN2C(=O)[C@@H](NCCC(=O)N2CC(c3cc4cc(-c5ccccc5O)nnc4[nH]3)C2)C(C)(C)C)cc1` (racemic) [Compound 50, (2S,4R)-4-hydroxy-1-((S)-2-((3-(3-(3-(2-hydroxyphenyl)-7H-pyrrolo[2,3-c]pyridazin-6-yl)azetidin-1-yl)-3-oxopropyl)amino)-3,3-dimethylbutanoyl)-N-(4-(4-methylthiazol-5-yl)benzyl)pyrrolidine-2-carboxamide], the “BRM HiBit Degradation Maximum (%)” value on HiBit-BRM fusion protein is “C (“C” indicates maximum degradation < 50%)”. Further, the Dmax in assay [1] was < 50%.
With `Cc1ncsc1-c1ccc([C@H](C)NC(=O)[C@@H]2C[C@@H](O)CN2C(=O)[C@@H](c2cc(N3CCN(CCN4CC(c5cc6cc(-c7ccccc7O)nnc6[nH]5)C4)CC3)no2)C(C)C)cc1` (racemic) [Compound 273, (2S,4R)-4-hydroxy-1-[(2R)-2-{3-[4-(2-{3-[3-(2-hydroxyphenyl)-7H-pyrrolo[2,3-c]pyridazin-6-yl]azetidin-1-yl}ethyl)piperazin-1-yl]-1,2-oxazol-5-yl}-3-methylbutanoyl]-N-[(1S)-1-[4-(4-methyl-1,3-thiazol-5-yl)phenyl]ethyl]pyrrolidine-2-carboxamide], on HiBit-BRM fusion protein, the “BRM HiBit Degradation Maximum (%)” value is “A (“A” indicates maximum degradation ≥ 75%)” and the DC50 was > 100 nM.
Take `Cc1ncsc1-c1ccc([C@H](C)NC(=O)[C@@H]2C[C@@H](O)CN2C(=O)[C@H](c2cc(OCCN3CC(c4cc5cc(-c6ccccc6O)nnc5[nH]4)C3)no2)C(C)C)cc1` (racemic) [Compound 62, (2S,4R)-4-hydroxy-1-((S)-2-(3-(2-(3-(3-(2-hydroxyphenyl)-7H-pyrrolo[2,3-c]pyridazin-6-yl)azetidin-1-yl)ethoxy)isoxazol-5-yl)-3-methylbutanoyl)-N-((S)-1-(4-(4-methylthiazol-5-yl)phenyl)ethyl)pyrrolidine-2-carboxamide]: the “BRM HiBit Degradation Maximum (%)” value on HiBit-BRM fusion protein is reported as “C (“C” indicates maximum degradation < 50%)”.
`Cc1ncsc1-c1ccc([C@H](C)NC(=O)[C@@H]2C[C@@H](O)CN2C(=O)[C@@H](c2cc(OCCN3CC(c4cc5cc(-c6ccccc6O)nnc5[nH]4)C3)no2)C(C)C)cc1` [Compound 14, (2S,4R)-4-hydroxy-1-((R)-2-(3-(2-(3-(3-(2-hydroxyphenyl)-7H-pyrrolo[2,3-c]pyridazin-6-yl)azetidin-1-yl)ethoxy)isoxazol-5-yl)-3-methylbutanoyl)-N—((S)-1-(4-(4-methylthiazol-5-yl)phenyl)ethyl)pyrrolidine-2-carboxamide formate]: at HiBit-BRM fusion protein, the “BRM HiBit Degradation Maximum (%)” value is “A (“A” indicates maximum degradation ≥ 75%)” and the DC50 was > 10 nM.
The matching figures for `Cc1ncsc1-c1ccc([C@H](C)NC(=O)[C@@H]2C[C@@H](O)CN2C(=O)[C@@H](c2cc(OCCN3CC(c4c[nH]c5nnc(-c6ccccc6O)cc45)C3)no2)C(C)C)cc1` [Compound 15, (2S,4R)-4-hydroxy-1-((R)-2-(3-(2-(3-(3-(2-hydroxyphenyl)-7H-pyrrolo[2,3-c]pyridazin-5-yl)azetidin-1-yl)ethoxy)isoxazol-5-yl)-3-methylbutanoyl)-N—((S)-1-(4-(4-methylthiazol-5-yl)phenyl)ethyl)pyrrolidine-2-carboxamide formate]: “A (“A” indicates maximum degradation ≥ 75%)” and > 100 nM.
For `Cc1ncsc1-c1ccc([C@H](C)NC(=O)[C@@H]2C[C@@H](O)CN2C(=O)[C@@H](c2cc(C3CCN(C(=O)N4CCc5[nH]c6nnc(-c7ccccc7O)cc6c5C4)CC3)no2)C(C)C)cc1` [Compound 105, (2S,4R)-4-hydroxy-1-((R)-2-(3-(1-(3-(2-hydroxyphenyl)-6,7,8,9-tetrahydro-5H-pyrido[3′,4′:4,5]pyrrolo[2,3-c]pyridazine-6-carbonyl)piperidin-4-yl)isoxazol-5-yl)-3-methylbutanoyl)-N—((S)-1-(4-(4-methylthiazol-5-yl)phenyl)ethyl)pyrrolidine-2-carboxamide], on HiBit-BRM fusion protein, the “BRM HiBit Degradation Maximum (%)” value is reported as “A (“A” indicates maximum degradation ≥ 75%)” and the DC50 was > 10 nM.
